From US12685740B2, “Compositions for the elimination of senescent cells” (Universität für Bodenkultur Wien, priority 2018, dated 2026)
Read-outs that look alike come from different tables or passages of the source.

Experiments:
[1] = test system: doxorubicin-induced premature senescent HUVECs; test: Alamar blue viability assay, doxorubicin-induced SIPS vs quiescent HUVECs (FIG. 5); format: cell-based, human; conditions: single treatment, 9 days, SIPS vs quiescent (Q) HUVECs
Protocol: (§1) Cells were seeded at a cell density of 2,800 cells/cm^2 one day prior to the treatment. The cells were treated nine times over a period of 11 days with 60-80 μM H2O2 supplemented to the media for one hour followed by a media change. Alternatively, depending on cell type cells were seeded at a cell density of 3,500-7,000 cells/cm^2 one day prior to the treatment and SIPS was induced with 100-200 nM doxorubicin (D1515, Sigma-Aldrich) supplemented to the medium for 6 days. Induction of senescence was verified by SA-β-gal staining, p21 expression, and absence of BrdU incorporation. AnnexinV/PI staining was performed to assure that the treatment was non-lethal and SIPS HDFs were cultured and monitored for over 50 days to assure that the induced growth arrest was permanent (Terlecki-Zaniewicz et al. 2018).
(§2) Alamar blue (DAL1100, Thermo Fisher Scientific) assay was performed according to the manufacturer's instructions. Cells were treated with the respective substances for 9 days with a media change on day 0, 3 and 6. The control was treated with the respective concentration of the solvent (DMSO).
(§3) Premature senescence was induced in HUVECs with doxorubicin (Sigma-Aldrich), which was supplemented to the growth media for 6 days. Treatment with senolytic substances started 8 days after completion of the SIPS treatment to allow for cells to enter senescence. Quiescent cells were used as control. Growth media was supplemented with senolytic substances for 9 days with media changes every 3 days. All samples, including the control, contained the same concentration of solvent (DMSO). Subsequently, the viability was assessed using an alamar blue assay (Thermo Fisher Scientific) (FIG. 5).

[2] = test system: Doxorubicin-induced premature senescent HDF76, HDF85, HDF161; test: Rescue of senolytic effect by manipulating cPLA2 activity, viability after 72 hours (FIG. 18); format: cell-based
Protocol: Doxorubicin-induced premature senescent HDF76, HDF85, HDF161 (SIPS) and quiescent control cells (Q) were either treated for 72 hours with the combination of 1 μM ACSL4 inhibitor Triacsin C (TrC) and 1 μM ALOXS inhibitor MK886 alone or in addition with either 2.5 μM A23187 (cPLA2 activator) or 12.5 μM ASB14780 (cPLA2 inhibitor).
This was also the case, when the enzymatic activity of the cytosolic phospholipase A2 was reduced by the small molecule inhibitor ASB14780 (Sigma Aldrich, SML1913).

[3] = test system: intracellular levels of AA of HDF161; test: Quantification of intracellular arachidonic acid by ELISA (FIG. 17b); format: cell-based, human; conditions: 10 μM MK886 together with 100 μM Diclofenac for 6 hrs, vs solvent (1% DMSO)
Protocol: The cells were harvested by trypsinization, centrifuged at 1000 g and 4° C. for 5 min and washed three times with cold PBS. The Cells were counted using a Vi-CELL XR (Beckman Coulter) automated cell counter and the cell pellets were resuspended in cold PBS to obtain a cell suspension with 2000-5000 cells/μl. Subsequently the cells were lysed by 30 cycles of sonication (30 s on, 30 s off) in a Bioruptor (Diagenode). Cell debris was removed by 10 min centrifugation at 1500 g and 4° C. and the supernatant was analyzed with an ELISA assay (Novus Biologicals; NBP2-66372) according to the manufacturer's instructions.
In order to verify, whether novel senolytics can be identified in an efficient screen measuring the intracellular levels of AA, an ELISA test (Novus Biologicals; NBP2-66372) was used according to the manufacturer's instructions to first, confirm that novel senolytics identified in the examples above indeed lead to an accumulation of intracellular AA, and second, to screen for compounds, which cause an increase of intracellular levels of AA in senescent HDFs.

[4] = test system: Doxorubicin-induced premature senescent fHDF166; test: Alamar blue viability assay, doxorubicin-induced SIPS vs quiescent fHDF166 (FIG. 8, 15); format: cell-based, human; conditions: for EC50: read-out: EC50 for senescent cells
Protocol: as §1, §2
as §3, with “adult and foreskin HDFs” for “HUVECs”, “doxorubicin,” for “doxorubicin (Sigma-Aldrich),”, “Scientific).” for “Scientific) (FIG. 5).”
as §3, with “In order to test this, premature” for “Premature”, “foreskin HDFs” for “HUVECs”, “doxorubicin,” for “doxorubicin (Sigma-Aldrich),”, “Scientific).” for “Scientific) (FIG. 5).”

[5] = test system: Doxorubicin-induced premature senescent RPTEC1; test: Alamar blue viability assay, doxorubicin-induced SIPS vs quiescent RPTEC1 (FIG. 13); format: cell-based, human
Protocol: as §1, §2

[6] = test system: Doxorubicin-induced premature senescent HDF161; test: Alamar blue viability assay, doxorubicin-induced SIPS vs quiescent HDF161 (FIG. 6); format: cell-based, human; conditions: for EC50: read-out: EC50 for senescent cells
Protocol: as §1, §2
as §3, with “adult and foreskin HDFs” for “HUVECs”, “doxorubicin,” for “doxorubicin (Sigma-Aldrich),”, “Scientific).” for “Scientific) (FIG. 5).”

[7] = test system: Doxorubicin-induced premature senescent HDF76, HDF161, HDF164; test: Alamar blue viability assay, SIPS vs quiescent HDF, combined data of three donors (FIG. 9, 11); format: cell-based, human
Protocol: as §1, §2
as §3, with “adult and foreskin HDFs” for “HUVECs”, “doxorubicin,” for “doxorubicin (Sigma-Aldrich),”, “Scientific).” for “Scientific) (FIG. 5).”

[8] = test system: H2O2-induced premature senescent human dermal fibroblasts; test: Alamar blue viability assay, H2O2-induced premature senescent (SIPS) vs quiescent HDFs (FIG. 4); format: cell-based; conditions: single treatment, 9 days, SIPS vs quiescent (Q) HDFs
Protocol: as §1, with “([…],” for “(D1515,”, “([…]” for “(Terlecki-Zaniewicz”, “2018). Alamar blue (DAL1100, Thermo Fisher Scientific) assay was performed according to the manufacturer's instructions. […] The control was treated with the respective concentration of the solvent (DMSO). Premature senescence was induced in HDF with chronic oxidative stress treatment (9 doses of H2O2 treatment over the period of 11 days). Quiescent cells were used as control. […] Subsequently, the viability was assessed using an alamar blue assay (Thermo Fisher Scientific).” for “2018).”

[9] = test system: Doxorubicin-induced premature senescent HDF164; test: Alamar blue viability assay, doxorubicin-induced SIPS vs quiescent HDF164 (FIG. 7, 14); format: cell-based, human; conditions: for EC50: read-out: EC50 for senescent cells
Protocol: as §1, §2
as §3, with “adult and foreskin HDFs” for “HUVECs”, “doxorubicin,” for “doxorubicin (Sigma-Aldrich),”, “Scientific).” for “Scientific) (FIG. 5).”
as §3, with “adult HDFs” for “HUVECs”, “doxorubicin,” for “doxorubicin (Sigma-Aldrich),”, “allow” for “allow for”, “Scientific).” for “Scientific) (FIG. 5).”

[10] = target: cyclooxygenase; conditions: Wang et al. 2000; read-out: IC50 of inhibiting cyclooxygenase activity; cited from earlier work
[11] = test system: Doxorubicin-induced premature senescent HLF102; test: Alamar blue viability assay, doxorubicin-induced SIPS vs quiescent HLF102 (FIG. 12); format: cell-based, human
Protocol: as §1, §2

[12] = target: COX-1 (Homo sapiens, UniProt P23219); conditions: cited from earlier work
Chain of COX-1 (P23219 24-599): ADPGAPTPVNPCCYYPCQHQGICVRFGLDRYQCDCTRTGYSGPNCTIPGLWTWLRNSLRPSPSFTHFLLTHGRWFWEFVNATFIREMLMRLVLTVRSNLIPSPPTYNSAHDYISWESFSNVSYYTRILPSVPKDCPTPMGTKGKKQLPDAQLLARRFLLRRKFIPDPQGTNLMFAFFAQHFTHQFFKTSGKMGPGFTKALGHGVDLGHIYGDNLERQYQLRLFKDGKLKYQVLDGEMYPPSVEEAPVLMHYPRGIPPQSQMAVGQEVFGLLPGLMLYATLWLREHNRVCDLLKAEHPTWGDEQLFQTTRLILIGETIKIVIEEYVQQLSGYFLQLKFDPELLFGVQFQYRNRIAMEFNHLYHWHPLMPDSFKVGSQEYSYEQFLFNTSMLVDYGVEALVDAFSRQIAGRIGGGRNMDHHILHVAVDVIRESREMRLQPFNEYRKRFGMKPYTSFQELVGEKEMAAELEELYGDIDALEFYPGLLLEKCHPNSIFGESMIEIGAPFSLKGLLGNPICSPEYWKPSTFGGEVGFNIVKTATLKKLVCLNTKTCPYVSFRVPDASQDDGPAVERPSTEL

[13] = 12.5 μM ASB14780 added to 1 μM TrC and 1 μM MK886, 72 hours
[14] = MK886 combined with 50 μM Diclofenac
[15] = increasing MK886 combined with 50 μM Diclofenac
[16] = increasing MK886 combined with 0.4 mM ASA
[17] = single treatment (DQ: 15 μM Quercetin with increasing Dasatinib)

In the case of `CC1(C)Cc2c(-c3ccccc3)c(-c3ccc(Cl)cc3)c(CC(=O)O)n2C1` [Licofelone], the senolytic effect [1] is reported as “significant senolytic effect”.

For `NC(CO)(CO)CO.O=C(O)CCc1ccc2c(c1)c(CCc1ccccc1)cn2-c1ccc(Oc2ccccc2)cc1` [ASB14780], the “effect on the cytotoxic effect of TrC and MK886 on senescent cells” value [2, 13] was “reduced the cytotoxic effect” and the “viability of quiescent cells” value [2, 13] was “only affected to a minor extent”.

In the case of `CNc1ccc2oc(C[C@H]3O[C@@]4(CC[C@H]3C)O[C@H]([C@H](C)C(=O)c3ccc[nH]3)[C@H](C)C[C@H]4C)nc2c1C(=O)O` [A23187], the “effect on the senolytic effect of 1 μM TrC and 1 μM MK886” value ([2]; 2.5 μM A23187 added, 72 hours) is reported as “abolishing the senolytic effect”.

For `CC(C)c1ccc2c(c1)c(SC(C)(C)C)c(CC(C)(C)C(=O)O)n2Cc1ccc(Cl)cc1` [MK886], the “intracellular AA levels” value [3] was “increased”, the “fold change between the EC50 of senescent versus quiescent cells” value (“fold change between the EC50” for short) ([4]; MK886 as single treatment) was 1.49 fold and the EC50 ([4]; MK886 as single treatment) was 34 µM. The “fold change between the EC50” value [4, 14] was 2.52 fold, the “fold change between the EC50” value ([4]; MK886 combined with 0.4 mM ASA) was 1.51 fold and the “fold change between the EC50” value ([4]; MK886 combined with 0.4 mM ASA and 2 μM CsA) was 2.81 fold. The EC50 [4, 15] was 12.4 µM, the EC50 ([4]; increasing MK886 combined with 0.4 mM ASA and 2 μM CsA) was 14.9 µM and the EC50 [4, 16] was 29.6 µM. The “EC50 fold change between senescent and quiescent cells” value ([5]; increasing MK886 combined with 0.1 μM TrC and 25 μM Diclofenac) was “around 700 fold”, the “EC50 fold change between senescent and quiescent cells” value ([5]; increasing MK886 combined with 25 μM Diclofenac) was 5.11 fold and the “EC50 fold change between senescent and quiescent cells” value ([5]; single treatment) was 2.66 fold. The “fold change between the EC50” value ([6]; MK886 as single treatment) was 1.58 fold, the EC50 ([6]; MK886 as single treatment) was 26.4 µM and the “fold change between the EC50” value ([6]; MK886 combined with 2 μM Celecoxib) was 2.55 fold. For the same compound, the “fold change between the EC50” value [6, 14] was 2.53 fold, the “fold change between the EC50” value ([6]; MK886 combined with 0.4 mM ASA) was 1.95 fold and the EC50 ([6]; increasing MK886 combined with 2 μM Celecoxib) was 17 µM. For the same compound, the EC50 [6, 15] was 9 µM, the EC50 [6, 16] was 18.8 µM and the senolytic effect ([7]; increasing MK886 combined with 0.5 μM TrC (dual inhibition of ACSL4 and ALOX5)) was “significant senolytic effect”. For the same compound, the senolytic effect [7, 17] was “not significant”, the senolytic effect [8] was “significant senolytic effect” and the “fold change between the EC50” value ([9]; MK886 as single treatment) was 1.31 fold. For the same compound, the EC50 ([9]; MK886 as single treatment) was 34.7 µM, the “fold change between the EC50” value [9, 14] was 1.61 fold and the “fold change between the EC50” value ([9]; MK886 combined with 100 μM Diclofenac) was 1.88 fold. The “fold change between the EC50” value ([9]; MK886 combined with 200 μM Diclofenac) was 1.64 fold, the “fold change between the EC50” value ([9]; MK886 combined with 0.4 mM ASA) was 1.46 fold and the “fold change between the EC50” value ([9]; MK886 combined with 0.4 mM ASA and 5 μM Oligomycin A) was 4.51 fold. It also gave an EC50 [9, 15] of 17.3 µM, an EC50 ([9]; increasing MK886 combined with 100 μM Diclofenac) of 11.2 µM and an EC50 ([9]; increasing MK886 combined with 200 μM Diclofenac) of 8.39 µM. The EC50 ([9]; increasing MK886 combined with 0.4 mM ASA and 5 μM Oligomycin A) was 9.9 µM and the EC50 [9, 16] was 30.4 µM.

For `O=c1c(O)c(-c2ccc(O)c(O)c2)oc2cc(O)cc(O)c12` [Quercetin], the IC50 [10] is given as no less than 100 µM.

In the case of `CC1(C)CCC(c2ccc(Cl)cc2)=C(CN2CCN(c3ccc(C(=O)NS(=O)(=O)c4ccc(N[C@H](CCN5CCOCC5)CSc5ccccc5)c(S(=O)(=O)C(F)(F)F)c4)cc3)CC2)C1` [Navitoclax], the senolytic effect [7, 17] is reported as “no senolytic effect” and the senolytic effect [1] is reported as “significant senolytic effect”.

For `CCC/C=C/C/C=C/C=C/C=N/NN=O` [TrC, Triacsin C], the “EC50 fold change between senescent and quiescent cells” value ([11]; TrC as single treatment) was 9.19 fold, the “EC50 fold change between senescent and quiescent cells” value ([11]; increasing TrC combined with 1 μM MK886 and 50 μM Diclofenac) was 13.75 fold and the “EC50 fold change between senescent and quiescent cells” value ([5]; single treatment) was “around 350 fold”. For the same compound, the senolytic effect [7, 17] was “significant senolytic effect”.

In the case of `O=C(O)Cc1ccccc1Nc1c(Cl)cccc1Cl` [Diclofenac], the “EC50 fold change between senescent and quiescent cells” value ([5]; single treatment) is reported as 3.02 fold.

In the case of `CC(C)=CCC[C@]1(C)[C@@H](CC=C(C)C)C[C@@]2(CC=C(C)C)C(=O)[C@]1(C(=O)C(C)C)C(=O)C(CC=C(C)C)=C2O` [hyperforin], the “COX-1 inhibition relative to aspirin” value [12] is given as 3-18 times.

For `CC(=O)Oc1ccccc1C(=O)O` [ASA, acetylsalicylic acid], the senolytic effect [1] was “significant senolytic effect” and the senolytic effect [8] was “significant senolytic effect”.
